Data as given in US12566283B2, “Optical absorbent” (LMS CO., LTD., priority 2022, dated 2026).

What was measured:
Type in all cases: physicochemical
[1] = Measuring absorption maximum of the optical absorbent in chloroform; conditions: about 10^−5 M
Protocol: 1. Measuring Absorption Maximum
The absorption maximum was evaluated by a conventional method. Specifically, the sample was dissolved in a chloroform solvent at a concentration of about 10^−5 M and then evaluated by using a measuring instrument (Agilent, Varian Cary 4000).

[2] = Measuring solubility of the optical absorbent in methylene chloride; conditions: room temperature (about 25° C.)
Protocol: 3. Measuring Solubility The solubility of the optical absorbent was evaluated. Solubility was determined according to the following criteria by evaluating the solubility of the optical absorbent in the solvent (MC, Methylene Chloride) at room temperature (about 25° C.). <Solubility Criteria> • A: When the solubility is 1% by mass or more. • B: When the solubility is 0.5% by mass or more and less than 1% by mass. • C: When the solubility is 0.2% by mass or more and less than 0.5% by mass. • D: When the solubility is less than 0.2% by mass. 4. Pyrolysis Temperature (Td 5%) Analysis

[3] = Pyrolysis temperature (Td 5%) analysis by TGA; conditions: 25° C. to 800° C., 10° C./min, nitrogen 60 cm^3/min
Protocol: The Td 5% is a value obtained through Thermogravimetric Analysis (TGA). It is a value (Td 5%) at the weight loss of 95% confirmed in a temperature range of 25° C. to 800° C., with a heating rate of 10° C./min and under nitrogen (N2) atmosphere condition of 60 cm^3/min.
Thermogravimetric analysis (TGA) was performed by using TGA N-1000 equipment manufactured by Scinco Co. The analysis was performed by using about 3 mg of the sample (optical absorbent) and the analysis was conducted at a temperature range of 25° C. to 800° C., with a temperature increase rate of 10° C./min, and under 60 cm^3/min of a nitrogen (N2) atmosphere. As for the Td pyrolysis temperature, the value(Td 5%) at 95% weight loss was used.

[4] = Test Example 1: transmittance of optical absorption film before and after reliability evaluation (85° C., 85% relative humidity, 120 hours); conditions: for Tave 425~465 nm, Δ / Tave 466~480 nm, Δ / Tave 480~560 nm, Δ / Tmin 425~465 nm, Δ / Tmin 466~480 nm, Δ / Λmax Tmax, Δ: change rate 100×(A−B)/B; for Tmin 425~465 nm, B: silicone resin film about 6 μm; for Tmin 425~465 nm, B / Tmin 425~465 nm, A / Tmin 466~480 nm, A / Tmin 466~480 nm, B: minimum transmittance; for Tmin 425~465 nm, B / Tave 425~465 nm, B / Tave 466~480 nm, B / Tave 480~560 nm, B / Tmin 466~480 nm, B: before reliability evaluation; for Tave 425~465 nm, A / Tave 466~480 nm, A / Tave 480~560 nm, A / Tave 425~465 nm, B / Tave 466~480 nm, B / Tave 480~560 nm, B / Tmin 425~465 nm, A / Tmin 466~480 nm, A / Tmin 466~480 nm, B: silicone resin film; for Tave 425~465 nm, A / Tave 466~480 nm, A / Tave 480~560 nm, A / Tave 425~465 nm, B / Tave 466~480 nm, B / Tave 480~560 nm, B: average transmittance; for Tave 425~465 nm, A / Tave 466~480 nm, A / Tave 480~560 nm, A / Tmin 425~465 nm, A / Tmin 466~480 nm, A: after 85° C., 85% relative humidity, 120 hours
Protocol: 2. Evaluation of Transmittance Spectrum
The transmittance spectrum was measured by using a spectrophotometer (Manufacturer: Perkinelmer Co., Product Name: Lambda 750 Spectrophotometer) for a specimen obtained by cutting the measurement subject (e.g., an optical absorption film) to 10 mm and 10 mm in width and length, respectively. The transmittance spectrum was measured for each wavelength and incident angle according to the manual of the equipment. The specimen was placed on a straight line between the measuring beam and the detector of the spectrophotometer, and the transmittance spectrum was checked while changing the incident angle of the measuring beam from 0° to 40°. Unless specifically stated otherwise, the result of the transmittance spectrum in this embodiment was the result when the incident angle is 0°. The incident angle of 0° is a direction substantially parallel to the direction normal to the surface of the specimen.
The average transmittance within a predetermined wavelength region in the transmittance spectrum was the result of measuring the transmittance of each wavelength while increasing the wavelength by 1 nm from the shortest wavelength in the wavelength region, and then calculating the arithmetic average of the measured transmittance. The maximum transmittance is the maximum one among the transmittance measured while increasing the wavelength by 1 nm. For example, the average transmittance within the wavelength range of 350 nm to 360 nm is the arithmetic average of transmittances measured at wavelengths of 350 nm, 351 nm, 352 nm, 353 nm, 354 nm, 355 nm, 356 nm, 357 nm, 358 nm, 359 nm and 360 nm and the maximum transmittance within the wavelength range of 350 nm to 360 nm is the highest transmittance among transmittances measured at wavelengths of 350 nm, 351 nm, 352 nm, 353 nm, 354 nm, 355 nm, 356 nm, 357 nm, 358 nm, 359 nm and 360 nm.
(§1) A coating solution was prepared by mixing a silicone resin (Dow Chemical, RSN-0217) as a resin component, an optical absorbent, and a solvent (Cyclohexanone). The mixing ratio of the resin component, the optical absorbent and the solvent was 69.3:0.99:29.7 in weight ratio (Resin:Optical Absorbent:Solvent).
(§2) The coating solution was coated on a transparent substrate (a glass substrate manufactured by SCHOTT Co.) and maintained at 140° C. for about 2 hours to form an optical absorption film having a thickness of about 6 μm. The optical absorbent of Embodiment 1, Embodiment 2 or Comparative Example 1 was used as the optical absorbent.
Table 2 below summarizes the transmittance of the optical absorption film before and after reliability evaluation in the ultraviolet and the near infrared regions. The reliability evaluation is an evaluation of the optical absorption film maintained at 85° C. and 85% relative humidity for 120 hours. In Table 2, B means the result before performing the reliability evaluation, and A means the result after performing the reliability evaluation. In addition, in Table 2, Λmax means the transmittance at the absorption maximum.
In Table 2, Δ is the change rate (%) of each characteristic before and after the reliability evaluation and it is a result calculated as 100×(A−B)/B, where A is a numerical value indicated under column A in Table 2, and B is a numerical value indicated under column B in Table 2. In Table 2, Tmax denotes the highest transmittance within a corresponding wavelength range, Tave denotes an average transmittance within a corresponding wavelength range, and Tmin denotes a minimum transmittance within a corresponding wavelength range.

[5] = Test Example 2: absorption maximum of optical absorption film before and after high temperature and high humidity evaluation; conditions: for ΔA: 100×(Af−Ai)/Ai; for Δλ: 100×(λf−λi)/λi; for Ai (transmittance at the absorption maximum wavelength) / λi (absorption maximum wavelength): optical absorption film before being maintained at 85° C.; for Af (transmittance at the absorption maximum wavelength) / λf (absorption maximum wavelength): optical absorption film maintained at 85° C.
Protocol: as §1, §2
For the optical absorption film prepared in Test Example 1, the absorbance spectrum of the optical absorption film prepared by using the optical absorbent of Embodiment 1 is shown in FIG. 7, the absorbance spectrum of the optical absorption film prepared by using the optical absorbent of Embodiment 2 is shown in FIG. 8, and the absorbance spectrum of the optical absorption film prepared by using the optical absorbent of Comparative Example 1 is shown in FIG. 9. In FIGS. 7 to 9, A-1, A-2, and A-3 indicate evaluations of the optical absorption films of Embodiments 1 and 2 and Comparative Example 1, respectively. […] The high-temperature and high-humidity evaluation is an evaluation where the optical absorption film is maintained at a temperature of 85° C. and under a relative humidity of 85% for 120 hours.
In Table 3, Af is the transmittance at the absorption maximum wavelength of the optical absorption film maintained at 85° C. temperature and under 85% relative humidity for 120 hours, λf is the absorption maximum wavelength at this time, and Ai is the transmittance at the absorption maximum wavelength of the optical absorption film before being maintained at 85° C. temperature and under 85% relative humidity for 120 hours. λi is the absorption maximum wavelength at this time.
In Table 3, ΔA is a value calculated as 100×(Af−Ai)/Ai and Δλ is a value calculated as 100×(λf−λi)/λi.

[6] = 85% relative humidity, 120 hours

Structure (SMILES)	Absorption Maximum Wavelength [1] [nm]	Solubility [2]	Td 5% (5% pyrolysis temperature) [3] [°C]	Tave 425~465 nm, Δ [4] [%]	Tave 466~480 nm, Δ [4] [%]	Tave 480~560 nm, Δ [4] [%]	Tmin 425~465 nm, Δ [4] [%]	Tmin 466~480 nm, Δ [4] [%]	Λmax Tmax, Δ [4] [%]	Tmin 425~465 nm, B [4]	Tave 425~465 nm, A [4]	Tave 466~480 nm, A [4]	Tave 480~560 nm, A [4]	Tave 425~465 nm, B [4]	Tave 466~480 nm, B [4]	Tave 480~560 nm, B [4]	Tmin 425~465 nm, A [4]	Tmin 466~480 nm, A [4]	Tmin 466~480 nm, B [4]	ΔA [5] [%]	further results
C/C(C1=Nc2ccc([Si](C)(C)C)cc2C1(C)C)=C1/C(=O)C(C(/C)=C2/Nc3ccc([Si](C)(C)C)cc3C2(C)C)=C1O [Comparative Example 1, reference compound]	738	A (When the solubility is 1% by mass or more)	187	0	−0.1	−0.1	0.3	−0.1	34.7	91.35	92.03	92.07	92.27	91.99	92.14	92.32	91.62	91.76	91.84	36.7	Absorption Maximum Wavelength ([1]; listed as A3): about 738 nm; Δλ [5]: 24.4%; Ai (transmittance at the absorption maximum wavelength) [5, 6]: 66.3%; λi (absorption maximum wavelength) [5, 6]: 731 nm; Af (transmittance at the absorption maximum wavelength) [5, 6]: 90.6%; λf (absorption maximum wavelength) [5, 6]: 909 nm; light absorption characteristics before and after high temperature and high humidity ([5]; optical absorption film, 85° C., 85% relative humidity, 120 hours, FIGS. 7 to 9): almost lost
CC1N(CCC[Si](C)(C)C)c2ccc(C3=C([O-])/C(=c4\ccc5c(c4)C(C)(C)C(C)[N+]=5CCC[Si](C)(C)C)C3=O)cc2C1(C)C (stereo not shown) [Embodiment 1]	652	A (When the solubility is 1% by mass or more)	247	−0.3	−0.1	−0.1	−0.2	0	8.2	89.64	90.26	89.58	91.06	90.49	89.64	91.17	89.42	89.10	89.06	8.2	Absorption Maximum Wavelength ([1]; listed as A1): about 652 nm; Δλ [5]: 0%; Ai (transmittance at the absorption maximum wavelength) [5, 6]: 6.12%; λi (absorption maximum wavelength) [5, 6]: 658 nm; Af (transmittance at the absorption maximum wavelength) [5, 6]: 6.62%; λf (absorption maximum wavelength) [5, 6]: 658 nm
CC1N(CCC[Si](C)(C)C)c2c(cc(C3=C([O-])/C(=c4/cc5c(c6ccccc46)=[N+](CCC[Si](C)(C)C)C(C)C5(C)C)C3=O)c3ccccc23)C1(C)C (stereo not shown) [Embodiment 2]	772	A (When the solubility is 1% by mass or more)	260	−0.2	0	−0.1	−0.3	0.1	7	88.75	89.72	88.64	90.86	89.87	88.61	90.93	88.52	87.95	87.88	6.8	Absorption Maximum Wavelength ([1]; listed as A2): about 772 nm; Δλ [5]: 0%; Ai (transmittance at the absorption maximum wavelength) [5, 6]: 8.91%; λi (absorption maximum wavelength) [5, 6]: 765 nm; Af (transmittance at the absorption maximum wavelength) [5, 6]: 9.52%; λf (absorption maximum wavelength) [5, 6]: 765 nm
